Data on one compound can be found in patent US20220226321A1, “INHIBITOR OF MNK FOR THE TREATMENT OF NEUROPATHIC PAIN” (Board of Regents, The University of Texas System, priority 2019, published 2022).

One test concerns paclitaxel-treated mice. Kind of test: thermal latency (Hot/Cold plate) in paclitaxel-induced CIPN. In kind it is in vivo, mouse. The conditions noted are these: for thermal hyperalgesia: acute treatment. As to the method:
Thermal and mechanical testing. Mice were housed on 12-hr light-/dark cycles with lights on at 7:00 AM. Mice had food and water available ad libitum. All behavioral experiments were performed between the hours of 9:00 AM and 6:00 PM. Mice were randomized to groups from multiple cages to avoid using mice from experimental groups that were cohabitating. Sample size was estimated as […] using a power calculation with 80% power, expectations of 50% effect size, with alpha set to 0.05. The number of animals used in each experiment was based on available animals of the appropriate sex and age but was at least n=5 for experiments. Standard deviation for power calculations was based on previously published data using similar models. Mice were habituated for 1 hr to clear acrylic behavioral chambers before beginning the experiment. Mechanical paw withdrawal thresholds were measured using the up-down method (Chaplan et al., 1994) with calibrated Von Frey filaments (Stoelting Company, Wood Dale, Ill.). Thermal latency was measured using a Hot/Cold plate setting the temperature at 49, 50 and 52° C. […] The experimenter was blinded to the genotype of the mice and drug condition in all experiments.

A further test relates to SNI mice. The test is described as follows: conditioned place preference (CPP) after SNI. In kind it is in vivo, mouse. Conditions: WT SNI, 10 mg/kg i.p., single conditioning day. How it is done:
Conditioned Place Preference. A previously published CPP protocol from the Walters laboratory protocol was used (Yang et al., 2014). The CPP box consisted of one black and one white chamber connected by a striped chamber. CPP was conducted in a dark room with a single low lumens light source (Maia 69E120-WH). The middle chamber of the CPP box was brightly illuminated to discourage mice from spending time in the middle chamber. […] On day 1 of testing (preconditioning), each mouse was permitted to explore the middle and black (but not white) chambers for 30 minutes. […] On the last day of CPP, each mouse was placed in the middle chamber with unrestricted access to all chambers and video-recorded for 10 min. Data are presented as the percent change in time spent in the drug-paired chambered compared to the control (vehicle or sham for each genotype or surgery). This was calculated by dividing each animal's time spent in the white box by the control average, multiplying by 100 and then subtracting 100.
Surgery. Spared nerve injury (SNI) was performed by the ligation and cutting of the tibial and peroneal branches of the left sciatic nerve trifurcation, leaving the sural branch intact as previously described (Decosterd and Woolf, 2000). Sham surgeries were performed the same way but without cutting the nerve. Mice were allowed to recover for 2 weeks following surgery.

`Cc1cc(Nc2cc(N)ncn2)c(=O)n2c1C(=O)NC21CCCCC1` [eFT508, Tomivosertib]: the thermal hypersensitivity entry in the test with paclitaxel-treated mice (10 mg/kg after full development of CIPN) was “reversal”. Moreover, the figures for the thermal hyperalgesia entry in the test with paclitaxel-treated mice (at 3 hrs) and in the test on paclitaxel-treated mice (at 24 hrs) were “did not significantly attenuate” and “a significant effect was observed”, respectively. Besides, in the test on SNI mice, the “more time in the drug-paired (white) chamber vs SNI animals that received vehicle” value was approximately 40%.
